In PubChem BioAssay (NCI):
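Five concentrations, 48 hours, 96-well plates. TGI: concentration producing complete growth inhibition.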

How the values were obtained:
Experiment in all cases: NCI anticancer screen, dose series, 48 h
[1] = tested on: HCT-116 colon
[2] = tested on: LOX IMVI melanoma
[3] = tested on: OVCAR-3 ovarian
[4] = tested on: HT29 colon
[5] = tested on: SF-268 CNS
[6] = tested on: IGROV1 ovarian
[7] = tested on: HCC-2998 colon
[8] = tested on: ACHN renal
[9] = tested on: T-47D breast
[10] = tested on: U251 CNS
[11] = tested on: MDA-N
[12] = tested on: OVCAR-8 ovarian
[13] = tested on: OVCAR-4 ovarian

Compound | TGI [1] | TGI [2] | TGI [3] | TGI [4] | TGI [5] | TGI [6] | TGI [7] | TGI [8] | TGI [9] | TGI [10] | TGI [11] | TGI [12] | TGI [13]
CC1=C(C#N)C(=O)N(/N=C/c2ccc(Cl)cc2)C(=O)/C1=c1\o/c(=C2/C(=O)N(/N=C/c3ccc(Cl)cc3)C(=O)C(C#N)=C2C)c2nccnc12 | > 100 µM | > 100 µM | > 100 µM | > 100 µM | > 100 µM | > 100 µM | > 100 µM | > 100 µM | > 100 µM | > 100 µM | > 100 µM | > 100 µM | > 100 µM
COc1ccc(-c2cc(=O)c3c(O)c(OC)c(O)cc3o2)cc1O | 32.4 µM | 32.7 µM | > 100 µM | > 61.8 µM | > 100 µM | 40.2 µM | > 100 µM | > 100 µM | > 100 µM | > 100 µM | > 100 µM | > 100 µM | > 100 µM
O=c1oc2ccccc2c(O)c1C(c1ccc2ccccc2c1)c1c(O)c2ccccc2oc1=O | > 100 µM | > 100 µM | > 100 µM | 33.8 µM | 50.8 µM | 90.3 µM | 32.8 µM | 41.7 µM | > 100 µM | 39.2 µM | 68.9 µM | 31.6 µM | > 100 µM
O=c1c2cc([N+](=O)[O-])cnc2sn1-c1ccc(Oc2ccccc2)cc1 | > 100 µM | > 100 µM | > 100 µM | > 100 µM | > 100 µM | > 100 µM | > 100 µM | > 100 µM | 56.6 µM | > 100 µM | > 100 µM | > 100 µM | > 100 µM
CC(C)CC(=O)OC[n+]1cccc(-c2c(COC(=O)NC(C)C)c(COC(=O)NC(C)C)c3n2CCC3)c1 | > 100 µM | > 100 µM | > 100 µM | > 100 µM | > 100 µM | > 100 µM | > 100 µM | > 100 µM | > 100 µM | > 100 µM | > 100 µM | > 100 µM | > 100 µM
CCC1=NC(N/N=C/c2ccccc2O)=N/C1=C\c1ccccc1O | 39.8 µM | > 42.9 µM | 12.6 µM | 37.5 µM | > 66.9 µM | 56.9 µM | 36.4 µM | 29.5 µM | > 76.5 µM | > 100 µM | > 100 µM | > 69.2 µM | > 31.3 µM
CCOP(=O)(CCC(O)CNc1nc(N)nc(Cl)c1N=Nc1ccc(Cl)cc1)OCC (centres undefined) | 40.3 µM | 22.9 µM | 25.3 µM | 28.8 µM | 42.7 µM | 33 µM | 26.1 µM | 31.6 µM | 37.3 µM | 51.2 µM | 28.3 µM | > 100 µM | 24.3 µM
CCOC(=O)Cc1nc2nn(Cc3ccccc3)cc2c(=O)[nH]1 | > 100 µM | > 100 µM | > 100 µM | > 100 µM | > 100 µM | > 100 µM | > 100 µM | > 100 µM | > 100 µM | > 100 µM | > 100 µM | > 100 µM | > 100 µM
C=C(CO)[C@H]1CC/C(C)=C/CC/C(C)=C/C/C=C(\C)[C@H](O)C1 | > 100 µM | 73.8 µM | 93.6 µM | 35 µM | 51.4 µM | 36.1 µM | 32.2 µM | 69.7 µM | > 100 µM | 36 µM | > 100 µM | 35.3 µM | > 100 µM
COc1ccc(OC)c2c(=O)cc(-c3ccccc3)[nH]c12 | > 100 µM | > 100 µM | > 100 µM | > 100 µM | > 100 µM | > 100 µM | > 100 µM | > 100 µM | > 100 µM | > 100 µM | > 100 µM | > 100 µM | > 100 µM
COc1c(C(=O)O)cccc1-c1cccc(C(=O)NCCN(CCNC(=O)c2cccc(-c3cccc(C(=O)O)c3OC)c2OC)CCNC(=O)c2cccc(-c3cccc(C(=O)O)c3OC)c2OC)c1OC | > 100 µM | > 100 µM | 64.6 µM | > 100 µM | > 100 µM | > 100 µM | 79 µM | > 100 µM | > 100 µM | > 100 µM | 23.8 µM | > 100 µM | > 100 µM
COC(=O)C(Cc1ccccc1)C(=O)NC(CNC(=O)OCc1ccccc1)C(=O)OCc1ccccc1 (centres undefined) | 77.9 µM | 36 µM | 48.7 µM | > 61.2 µM | > 100 µM | > 100 µM | > 95.4 µM | > 100 µM | > 100 µM | > 100 µM | 58 µM | > 100 µM | > 100 µM
CC1=CC[C@@]2(C)[C@@H]([C@@H]1C)[C@H]1CC[C@@H]3[C@@]4(C)CC[C@H](O)C(C)(C)[C@@H]4CC[C@@]3(C)[C@]1(C)C[C@@H]2O | > 58 µM | 16 µM | 45.5 µM | 46 µM | 25.2 µM | 42.2 µM | 37.9 µM | 36 µM | > 74.9 µM | 23.1 µM | > 55.4 µM | 28.7 µM | > 82.2 µM
